Here are results for 5 molecules from patent US20040213757A1, “Water soluble wortmannin derivatives” (Wyeth Holdings Corporation, priority 2003, published 2004).

The test system of data set [1] is H-157. Nature of the data set: Thymidine incorporation proliferation assay, H-157. Type of data set: cell-based, human. Particulars: three days of treatment. On the procedure:
(§1) A549 (human non-small cell lung cancer) and H-157 cell lines were purchased from American Type Culture Collection (ATCC) (Rockville, Md.). Cells were cultured in RPMI Medium 1640 containing 10% fetal bovine serum (FBS) in a 37° C. incubator containing 5% CO2. All cell culture reagents were purchased from Gibco-BRL (Grand Island, N.Y.). Cells were plated in 96-well culture plates at about 3000 cells per well. One day following plating, water-soluble drug-polymer conjugates or the vehicle controls were added to cells. Proliferation assays were performed three days post initiation of treatment. For the non-radioactive cell proliferation assay, viable cell densities were determined by measuring metabolic conversion (by viable cells) of the dye MTS tatrazolium dye, a cell proliferation assay known by one of skill in the art (MTS assay), a previously established cell proliferation assay. The assay was performed using assay kit purchased from Promega Corp. (Madison, Wis.). The assay plates were incubated for 1-2 hours and the results were read in a 96-well format plate reader by measuring absorbance at 490 nm. For the thymidine incorporation assay, cells were labeled with [methyl-^3H]-thymidine (PerkinElmer Life Sciences, Boston, Mass.) for 5 hours. Cells were then harvested onto glass-fiber filter membranes and counted in a Wallac 1205 Betaplate liquid scintillation counter. Effect of each drug treatment was calculated as a percentage of control cell growth obtained from vehicle-treated cells grown in the same plate.
Background: Dividing cells build labelled thymidine or BrdU into new DNA.

The subject of data set [2] is H-157. In words: MTS cell proliferation assay, H-157. Type of data set: cell-based, human. As to conditions: three days of treatment. On the procedure:
as §1
(In general: Formazan colour is commonly taken as a measure of viable cells.)

In data set [3] the test system is A549 (human non-small cell lung cancer). Nature of the data set: MTS cell proliferation assay, A549. Type of data set: cell-based. Particulars: three days of treatment. As to the method:
as §1

For data set [4] the test system is unchanged. In words: Thymidine incorporation proliferation assay, A549. Type of data set: cell-based. As to conditions: three days of treatment. As to the method:
as §1

The test system of a further data set is U87MG glioblastoma. As to conditions: for Tumor Volume t/c, day 0 / Tumor Volume, mean, day 0 / Tumor Volume t/c, day 4 / Tumor Volume, mean, day 4 / Tumor Volume t/c, day 7 / Tumor Volume, mean, day 7 / Tumor Volume t/c, day 11 / Tumor Volume, mean, day 11 / Tumor Volume t/c, day 14 / Tumor Volume, mean, day 14 / Tumor Volume t/c, day 17 / Tumor Volume, mean, day 17: 0.7 mg/kg IV, d 0-4. On the procedure:
A tumor cell line for brain tumor, PTEN (−/−) U87MG Glioma was implanted in mice. The mice were dosed IV on days 0-4.
In this experiment, U87MG glioma growing as subcutaneous xenografts in nude mice were staged on day 0, and dosed on days 0-4 at 0.15, 0.5, 1.5, 5 and 15 mg/kg/dose of a wortmannin derivative of this invention.
In the U87MG glioma study shown in FIG. 3, a wortmannin derivative of this invention was dosed IV on days 0-4. Paclitaxel was dosed IP on days 0 and 7. The MTD of paclitaxel is 60 mg/kg/dose following a weekly dosing schedule. Mice were treated with a wortmannin derivative of this invention at 1 mg/kg/dose, paclitaxel at 30 and 60 mg/kg/dose, or treated in combination with a wortmannin derivative of this invention at 1 mg/kg/dose and paclitaxel at 30 mg/kg/dose.
A wortmannin derivative at 1 mg/kg/dose and Peg-rapa at 0.1 mg/kg/dose were dosed IV either alone or in combination on days 0-4.
Balb/c nu/nu (athymic) mice were housed in accordance with Association for Accreditation of Laboratory Animal Care (AALAACC) standards for at least one week prior to their experimental usage. The animals were housed in microisolator cages and handled only in a laminar flow hood. All food and water was autoclaved. Mice were inoculated on the left flank with a volume of 200 μL using a 25-26 gauge sterile needle and syringe with a suspension of cells. The cells were resuspended in full growth media and delivered at 10 million cells per mouse. When the resulting tumors reached the appropriate size for staging, the mice were regrouped to produce equivalent sized groups with n=10. Once staged, the mice were dosed 0.2 cc iv with the water-soluble drug-polymer conjugate II and water-soluble drug-polymer conjugate IV resuspended in sterile, distilled water. Wortmannin and other non-pegylated water-soluble drug-polymer conjugate were prepared 10 mg/ml in Dimethyl sulfoxide (DMSO) and diluted with Phosphate Buffered Saline (PBS) right before injecting into the mouse. Treatment was administered as a daily×5 dosing schedule repeated every 2 weeks until the tumors reach 10% of the animal's weight. The growth of the solid tumor was monitored twice a week for the duration of the experiment. Tumor size was quantitated using sliding vernier calipers and the mass was calculated using the formula […]. Conversion from cubic mm to mg was made assuming unit density. Tumors were not allowed to grow larger than 15% of the mouse's weight, at which point the mouse was euthanized.

The test system of another data set is PI3K. Particulars: cited from earlier work.
In a further data set the test system is C3H mammary model. Particulars: cited from earlier work.

Values after ≈ are worked out from the molar mass of the structure shown.

The term IC50 denotes the concentration at which inhibition is half-maximal. Take `COC[C@H]1OC(=O)c2coc3c2[C@@]1(C)C1=C(C3=O)[C@@H]2CCC(=O)[C@@]2(C)C[C@H]1OC(C)=O` [Wortmannin]: the IC50 in the data set with H-157 [1] (Homo sapiens, NCI-H157, 72 h) was found to be 3.2 µg/mL (≈ 7.47 µM); with H-157 [2] (Homo sapiens, NCI-H157, 72 h), 10 µg/mL (≈ 23.3 µM); in data set [3] (Homo sapiens, 72 h), 9 µg/mL (≈ 21 µM); in data set [4] (Homo sapiens, 72 h) it was 2.5 µg/mL (≈ 5.84 µM).

Regarding “Conjugate (IV) of M-PEG-SH 5000 and 11-desacetyl-11-(1-iodoacetyl)-wortmannin [Water-soluble drug-polymer conjugate IV]”, in the data set with H-157 [1], the “Thymidine Assay IC50, H-157” value is >3 µg/mL. Besides, in the data set on U87MG glioblastoma, the “Tumor Volume t/c, day 0” value came to 0.97; the “Tumor Volume, mean, day 0” value is 131.0 mm^3; the “Tumor Volume t/c, day 4” value worked out at 0.58; the “Tumor Volume, mean, day 4” value is 165.0 mm^3. Moreover, in the data set on U87MG glioblastoma, the “Tumor Volume t/c, day 7” value came to 0.46; the “Tumor Volume, mean, day 7” value is given as 147.9 mm^3; the “Tumor Volume t/c, day 11” value came out at 0.60; the “Tumor Volume, mean, day 11” value is on record as 349.0 mm^3. In the data set on U87MG glioblastoma, the “Tumor Volume t/c, day 14” value is 0.64; the “Tumor Volume, mean, day 14” value was found to be 707.4 mm^3; the “Tumor Volume t/c, day 17” value is listed as 0.69; the “Tumor Volume, mean, day 17” value is listed as 1454.9 mm^3. Moreover, in the data set with H-157 [2], the “MTS Assay IC50, H-157” value is >3 µg/mL. In addition, in data set [3], the “MTS Assay IC50, A549” value was >3 µg/mL. The “Thymidine Assay IC50, A549” value in data set [4] is >3 µg/mL.

Turning to `COCC1OC(=O)c2coc3c2C1(C)C1=C(C3=O)C2CCC(O)C2(C)CC1OC(C)=O` (stereo not drawn) [17β-Hydroxywortmannin], in the data set on PI3K (PI3K), the “increase in activity relative to wortmannin” value is listed as 10 fold. In the data set on PI3K, the IC50 is 0.5 nM. The “antitumor activity in the C3H mammary model” value in the data set on C3H mammary model (dose of 0.5 mg/kg) is given as “no inhibition”. Besides, the “toxicity in the C3H mammary model” value with C3H mammary model (dose of 1.0 mg/kg) is “toxicity”.

With “Conjugate (III) of M-PEG-SH 5000 and 17-dihydro-17-(1-iodoacetyl)-wortmannin [Water-soluble drug-polymer conjugate III]”, in the data set on H-157 [1], the “Thymidine Assay IC50, H-157” value was >3 µg/mL. Besides, in the data set on U87MG glioblastoma, the “Tumor Volume t/c, day 0” value turned out to be 1.01; the “Tumor Volume, mean, day 0” value worked out at 137.4 mm^3; the “Tumor Volume t/c, day 4” value is 0.51; the “Tumor Volume, mean, day 4” value came to 144.0 mm^3. Moreover, in the data set with U87MG glioblastoma, the “Tumor Volume t/c, day 7” value is 0.37; the “Tumor Volume, mean, day 7” value is 120.2 mm^3; the “Tumor Volume t/c, day 11” value is 0.51; the “Tumor Volume, mean, day 11” value was 300.2 mm^3. Further, in the data set with U87MG glioblastoma, the “Tumor Volume t/c, day 14” value was 0.50; the “Tumor Volume, mean, day 14” value was determined as 547.0 mm^3; the “Tumor Volume t/c, day 17” value amounted to 0.44; the “Tumor Volume, mean, day 17” value is 926.8 mm^3. The “MTS Assay IC50, H-157” value in the data set with H-157 [2] was >3 µg/mL. The “MTS Assay IC50, A549” value in data set [3] was >3 µg/mL. Besides, the “Thymidine Assay IC50, A549” value in data set [4] was >3 µg/mL.

As for `CC(=O)O[C@H]1C(=O)[C@@]2(C)[C@H]([C@H](OC(=O)c3ccccc3)[C@]3(O)C[C@H](OC(=O)[C@H](O)[C@@H](NC(=O)c4ccccc4)c4ccccc4)C(C)=C1C3(C)C)[C@]1(OC(C)=O)CO[C@@H]1C[C@@H]2O` [paclitaxel, reference compound], in the data set on U87MG glioblastoma (mouse, in vivo, ip), the MTD of paclitaxel amounted to 60 mg/kg/dose.
